The subject of one series is HEK293 cells. The experiment in a line: Cell penetration and intracellular localization of FITC-coupled peptide in HEK293 cells (fluorescence, Hoechst nuclei). In kind it is cell-based. Particulars: unlabeled peptide, statement in Example 1; cells not specified. The procedure:
HEK293 cells are placed in the presence of the peptide F2 at various concentrations (1 mM stock solution in distilled water, then dilutions to 25, 50 and 100 μM in DMEM culture medium), for 15, 30 or 60 minutes, continuously. The cell nuclei are labeled using Hoechst dye (left panel), and the peptide F2 is visualized by means of the FITC label (middle panel). […] The labeled cell nuclei are shown on the left panels, the peptide F2 on the middle panels and the superimposition of these two labelings is represented on the right panels (panels marked fusion).
HEK293 cells are placed in the presence of the peptide F1 at various concentrations (1 mM stock solution in distilled water, then dilutions to 25, 50 and 100 μM in
DMEM culture medium) for 15, 30 or 60 minutes, continuously. The cell nuclei are labeled using Hoechst dye, and the peptide F1 is visualized by means of the FITC label.

In another series the test system is Elk-1. Put plainly: Serum-induced P-Elk-1 in HEK cells, immunocytochemistry. The format is cell-based. The settings on record: peptide 10 μM for 40 minutes, serum 20 minutes. As to the method: HEK cells are placed in the presence of the peptide P2 (FIG. 4, middle panels) or P1 (FIG. 4, right panels), at the concentration of 10 μM for 40 minutes. Nontreated cells (without peptide) are used as controls (FIG. 4, left panels).
The cells are then treated for 20 minutes using fetal calf serum (serum) in order to activate the MAP kinase/ERK pathway.
The corresponding nuclei are visualized by means of the same star on the panels of the third line, marked Hoechst.

Ends that are not written are not given here.

As for “GRKKRRQRRRCCTLWQFLLHLLLDSPAKLSFQFPSGSAQVHI (sequence which inhibits the interaction between Elk 1 and ERK) [Peptide P1, HIV-TAT penetrating peptide, CC cleavage site, NES of Net, FXFP docking domain of Elk-1]”, the cell penetration entry in the series with HEK293 cells is on record as “penetrates into the cells”. For the same sequence, the “induction of P-Elk-1 (phosphorylation of Elk-1) in response to serum” value with Elk-1 is “not and also in the presence of serum and of the peptide P1”.

Turning to “GRKKRRQRRRPPSPAKLSFQFPSGSAQVHI [Peptide P2]”, in the series with HEK293 cells, the cell penetration result is “penetrates into the cells”.

For the origin of these results see patent US10494410B2, “Inhibitor Peptides of ERK-type MAP kinase” (Universite Pierre Et Marie Curie, priority 2005, dated 2019).
